As a reminder, the MIC is the smallest concentration in the dilution series that meets the test's criterion for growth inhibition.

In brackets after ≈: the same amount, converted by molar mass.

Consider three compounds from ChEMBL document CHEMBL3351686, “Facile and diastereoselective synthesis of 3,2'-spiropyrrolidine-oxindoles derivatives, their molecular docking and antiproliferative activities” (2015).

For the first assay, the system named is Shigella flexneri. The assay can be described thus: Antibacterial activity against Shigella flexneri MTCC 1457 assessed as zone of inhibition at 1 mg/disc after 24 hrs by disc diffusion method. Format: functional.
Details: not given
In the case of `N#C[C@]1(C(=O)c2c[nH]c3ccccc23)C2CCCN2[C@]2(C(=O)Nc3ccc(Cl)cc32)[C@@H]1c1cn(-c2ccccc2)nc1-c1ccccc1` (stereo partly specified), the “inhibition zone (IZ)” value was determined as 10 mm.

For the compound `C#CCN1C(=O)[C@]2(c3ccccc31)[C@H](c1cn(-c3ccccc3)nc1-c1ccccc1)[C@@](C#N)(C(=O)c1c[nH]c3ccccc13)C1CSCN12` (stereo partly specified), the “inhibition zone (IZ)” value worked out at 14 mm.

The test system of the next assay is Staphylococcus epidermidis. Put plainly: Antibacterial activity against Staphylococcus epidermidis MTCC 3615 assessed as zone of inhibition at 1 mg/disc after 24 hrs by disc diffusion method. Format: functional.
Details: not given
In general terms: A growth-free zone around the sample is the usual read-out of agar diffusion tests.
As to `CN1C[C@](C#N)(C(=O)c2c[nH]c3ccccc23)[C@@H](c2cn(-c3ccccc3)nc2-c2ccccc2)[C@@]12C(=O)Nc1ccccc12`, the “inhibition zone (IZ)” value is on record as 8 mm.

In the case of `N#C[C@]1(C(=O)c2c[nH]c3ccccc23)C2CCCN2[C@]2(C(=O)Nc3ccc(Cl)cc32)[C@@H]1c1cn(-c2ccccc2)nc1-c1ccccc1` (stereo partly specified), the “inhibition zone (IZ)” value is 8 mm.

A further assay relates to Salmonella typhimurium. The assay can be described thus: Antibacterial activity against Salmonella typhimurium MTCC 1251 assessed as zone of inhibition at 1 mg/disc after 24 hrs by disc diffusion method. Format: functional, Salmonella enterica subsp. enterica serovar Typhimurium.
Details: not given
For the compound `N#C[C@]1(C(=O)c2c[nH]c3ccccc23)C2CCCN2[C@]2(C(=O)Nc3ccc(Cl)cc32)[C@@H]1c1cn(-c2ccccc2)nc1-c1ccccc1` (stereo partly specified), the “inhibition zone (IZ)” value was found to be 8 mm.

Another assay concerns Proteus vulgaris. The assay can be described thus: Antibacterial activity against Proteus vulgaris MTCC 1771 assessed as zone of inhibition at 1 mg/disc after 24 hrs by disc diffusion method. Format: functional.
Details: not given
In the case of `CN1C[C@](C#N)(C(=O)c2c[nH]c3ccccc23)[C@@H](c2cn(-c3ccccc3)nc2-c2ccccc2)[C@@]12C(=O)Nc1ccccc12`, the “inhibition zone (IZ)” value was 8 mm.

Consider `N#C[C@]1(C(=O)c2c[nH]c3ccccc23)C2CCCN2[C@]2(C(=O)Nc3ccc(Cl)cc32)[C@@H]1c1cn(-c2ccccc2)nc1-c1ccccc1` (stereo partly specified), for which the “inhibition zone (IZ)” value is recorded as 10 mm.

On to `C#CCN1C(=O)[C@]2(c3ccccc31)[C@H](c1cn(-c3ccccc3)nc1-c1ccccc1)[C@@](C#N)(C(=O)c1c[nH]c3ccccc13)C1CSCN12` (stereo partly specified), for which the “inhibition zone (IZ)” value is on record as 9 mm.

The test system of another assay is Staphylococcus aureus. The assay can be described thus: Antibacterial activity against methicillin-resistant Staphylococcus aureus assessed as zone of inhibition at 1 mg/disc after 24 hrs by disc diffusion method. It counts as functional.
Details: not given
As to `CN1C[C@](C#N)(C(=O)c2c[nH]c3ccccc23)[C@@H](c2cn(-c3ccccc3)nc2-c2ccccc2)[C@@]12C(=O)Nc1ccccc12`, the “inhibition zone (IZ)” value is 8 mm.

In the case of `N#C[C@]1(C(=O)c2c[nH]c3ccccc23)C2CCCN2[C@]2(C(=O)Nc3ccc(Cl)cc32)[C@@H]1c1cn(-c2ccccc2)nc1-c1ccccc1` (stereo partly specified), the “inhibition zone (IZ)” value is listed as 8 mm.

As for `C#CCN1C(=O)[C@]2(c3ccccc31)[C@H](c1cn(-c3ccccc3)nc1-c1ccccc1)[C@@](C#N)(C(=O)c1c[nH]c3ccccc13)C1CSCN12` (stereo partly specified), the “inhibition zone (IZ)” value was found to be 13 mm.

In the next assay the test system is Proteus vulgaris. The assay can be described thus: Antibacterial activity against Proteus vulgaris MTCC 1771 assessed as inhibition of visual growth after 24 hrs. It counts as functional. As to conditions: MTCC 1771, 24 h.
As for `CN1C[C@](C#N)(C(=O)c2c[nH]c3ccccc23)[C@@H](c2cn(-c3ccccc3)nc2-c2ccccc2)[C@@]12C(=O)Nc1ccccc12`, the minimum inhibitory concentration (MIC) was 500 µg/mL (≈ 849 µM).

The subject of the next assay is Malassezia pachydermatis. Put plainly: Antifungal activity against Malassezia pachydermatis assessed as inhibition of visual growth after 48 to 72 hrs. Format: functional.
Details: not given
As to `CN1C[C@](C#N)(C(=O)c2c[nH]c3ccccc23)[C@@H](c2cn(-c3ccccc3)nc2-c2ccccc2)[C@@]12C(=O)Nc1ccccc12`, the minimal inhibitory concentration (MIC) stood at 500 µg/mL (≈ 849 µM).

The test system of the next assay is Micrococcus luteus. Put plainly: Antibacterial activity against Micrococcus luteus MTCC 106 assessed as inhibition of visual growth after 24 hrs. It counts as functional. As to conditions: MTCC 106, 24 h.
For `CN1C[C@](C#N)(C(=O)c2c[nH]c3ccccc23)[C@@H](c2cn(-c3ccccc3)nc2-c2ccccc2)[C@@]12C(=O)Nc1ccccc12`, the MIC was 250 µg/mL (≈ 425 µM).

A further assay relates to Staphylococcus aureus. The assay can be described thus: Antibacterial activity against methicillin-resistant Staphylococcus aureus assessed as inhibition of visual growth after 24 hrs. It counts as functional.
Details: not given
Take `CN1C[C@](C#N)(C(=O)c2c[nH]c3ccccc23)[C@@H](c2cn(-c3ccccc3)nc2-c2ccccc2)[C@@]12C(=O)Nc1ccccc12`: the minimal inhibitory concentration (MIC) is 500 µg/mL (≈ 849 µM).

Another assay deals with Staphylococcus aureus. Put plainly: Antibacterial activity against Staphylococcus aureus MTCC 96 assessed as zone of inhibition at 1 mg/disc after 24 hrs by disc diffusion method. It counts as functional.
Details: not given
Consider `CN1C[C@](C#N)(C(=O)c2c[nH]c3ccccc23)[C@@H](c2cn(-c3ccccc3)nc2-c2ccccc2)[C@@]12C(=O)Nc1ccccc12`, for which the “inhibition zone (IZ)” value is on record as 9 mm.

Regarding `N#C[C@]1(C(=O)c2c[nH]c3ccccc23)C2CCCN2[C@]2(C(=O)Nc3ccc(Cl)cc32)[C@@H]1c1cn(-c2ccccc2)nc1-c1ccccc1` (stereo partly specified), the “inhibition zone (IZ)” value is 9 mm.

The subject of the next assay is Klebsiella aerogenes. The assay can be described thus: Antibacterial activity against Enterobacter aerogenes MTCC 111 assessed as inhibition of visual growth after 24 hrs. It counts as functional. To be noted: MTCC 111, 24 h.
Consider `CN1C[C@](C#N)(C(=O)c2c[nH]c3ccccc23)[C@@H](c2cn(-c3ccccc3)nc2-c2ccccc2)[C@@]12C(=O)Nc1ccccc12`, for which the MIC came to 500 µg/mL (≈ 849 µM).

In the next assay the test system is Staphylococcus epidermidis. Put plainly: Antibacterial activity against Staphylococcus epidermidis MTCC 3615 assessed as inhibition of visual growth after 24 hrs. It counts as functional. As to conditions: MTCC 3615, 24 h.
For the compound `CN1C[C@](C#N)(C(=O)c2c[nH]c3ccccc23)[C@@H](c2cn(-c3ccccc3)nc2-c2ccccc2)[C@@]12C(=O)Nc1ccccc12`, the MIC is 500 µg/mL (≈ 849 µM).

The subject of another assay is Micrococcus luteus. The assay can be described thus: Antibacterial activity against Micrococcus luteus MTCC 106 assessed as zone of inhibition at 1 mg/disc after 24 hrs by disc diffusion method. It counts as functional.
Details: not given
In the case of `CN1C[C@](C#N)(C(=O)c2c[nH]c3ccccc23)[C@@H](c2cn(-c3ccccc3)nc2-c2ccccc2)[C@@]12C(=O)Nc1ccccc12`, the “inhibition zone (IZ)” value is recorded as 10 mm.

Regarding `N#C[C@]1(C(=O)c2c[nH]c3ccccc23)C2CCCN2[C@]2(C(=O)Nc3ccc(Cl)cc32)[C@@H]1c1cn(-c2ccccc2)nc1-c1ccccc1` (stereo partly specified), the “inhibition zone (IZ)” value is 9 mm.

Turning to `C#CCN1C(=O)[C@]2(c3ccccc31)[C@H](c1cn(-c3ccccc3)nc1-c1ccccc1)[C@@](C#N)(C(=O)c1c[nH]c3ccccc13)C1CSCN12` (stereo partly specified), the “inhibition zone (IZ)” value turned out to be 8 mm.

The subject of a further assay is Staphylococcus aureus. Put plainly: Antibacterial activity against Staphylococcus aureus MTCC 96 assessed as inhibition of visual growth after 24 hrs. Format: functional. To be noted: MTCC 96, 24 h.
For the compound `CN1C[C@](C#N)(C(=O)c2c[nH]c3ccccc23)[C@@H](c2cn(-c3ccccc3)nc2-c2ccccc2)[C@@]12C(=O)Nc1ccccc12`, the minimal inhibitory concentration (MIC) is 500 µg/mL (≈ 849 µM).

Another assay relates to Malassezia pachydermatis. Put plainly: Antifungal activity against Malassezia pachydermatis assessed as zone of inhibition at 1 mg/disc after 48 hrs by disc diffusion method. It counts as functional.
Details: not given
For the compound `CN1C[C@](C#N)(C(=O)c2c[nH]c3ccccc23)[C@@H](c2cn(-c3ccccc3)nc2-c2ccccc2)[C@@]12C(=O)Nc1ccccc12`, the “inhibition zone (IZ)” value came out at 9 mm.

As for `N#C[C@]1(C(=O)c2c[nH]c3ccccc23)C2CCCN2[C@]2(C(=O)Nc3ccc(Cl)cc32)[C@@H]1c1cn(-c2ccccc2)nc1-c1ccccc1` (stereo partly specified), the “inhibition zone (IZ)” value is given as 11 mm.

The next assay concerns Klebsiella pneumoniae. Put plainly: Antibacterial activity against Klebsiella pneumoniae MTCC 109 assessed as inhibition of visual growth after 24 hrs. It counts as functional. As to conditions: MTCC 109, 24 h.
Consider `CN1C[C@](C#N)(C(=O)c2c[nH]c3ccccc23)[C@@H](c2cn(-c3ccccc3)nc2-c2ccccc2)[C@@]12C(=O)Nc1ccccc12`, for which the minimal inhibitory concentration (MIC) is 500 µg/mL (≈ 849 µM).

For a further assay, the system named is Klebsiella aerogenes. The assay can be described thus: Antibacterial activity against Enterobacter aerogenes MTCC 111 assessed as zone of inhibition at 1 mg/disc after 24 hrs by disc diffusion method. It counts as functional.
Details: not given
Take `CN1C[C@](C#N)(C(=O)c2c[nH]c3ccccc23)[C@@H](c2cn(-c3ccccc3)nc2-c2ccccc2)[C@@]12C(=O)Nc1ccccc12`: the “inhibition zone (IZ)” value is 9 mm.

For the compound `N#C[C@]1(C(=O)c2c[nH]c3ccccc23)C2CCCN2[C@]2(C(=O)Nc3ccc(Cl)cc32)[C@@H]1c1cn(-c2ccccc2)nc1-c1ccccc1` (stereo partly specified), the “inhibition zone (IZ)” value is given as 8 mm.

The subject of another assay is Candida albicans. Put plainly: Antifungal activity against Candida albicans MTCC 227 assessed as zone of inhibition at 1 mg/disc after 48 hrs by disc diffusion method.
Details: not given
Format: functional.
For `N#C[C@]1(C(=O)c2c[nH]c3ccccc23)C2CCCN2[C@]2(C(=O)Nc3ccc(Cl)cc32)[C@@H]1c1cn(-c2ccccc2)nc1-c1ccccc1` (stereo partly specified), the “inhibition zone (IZ)” value stood at 13 mm.

For a further assay, the system named is Klebsiella pneumoniae. Put plainly: Antibacterial activity against Klebsiella pneumoniae MTCC 109 assessed as zone of inhibition at 1 mg/disc after 24 hrs by disc diffusion method.
Details: not given
It counts as functional.
Take `CN1C[C@](C#N)(C(=O)c2c[nH]c3ccccc23)[C@@H](c2cn(-c3ccccc3)nc2-c2ccccc2)[C@@]12C(=O)Nc1ccccc12`: the “inhibition zone (IZ)” value turned out to be 9 mm.

As to `N#C[C@]1(C(=O)c2c[nH]c3ccccc23)C2CCCN2[C@]2(C(=O)Nc3ccc(Cl)cc32)[C@@H]1c1cn(-c2ccccc2)nc1-c1ccccc1` (stereo partly specified), the “inhibition zone (IZ)” value was 9 mm.
